The assay addresses RORC2 ligand binding domain (6-His-RORC2 LBD) (Homo sapiens (Human), UniProt P51449). The experiment in a line: Co-activator recruitment by TR-FRET. The class given is biochemical. As to conditions: 6-His-RORC2 LBD / SRC1-2 coactivator peptide, Table 1. Background: In TR-FRET formats the signal depends on donor and acceptor labels being close together.

Sequence of RORC2 ligand binding domain (6-His-RORC2 LBD) (P51449 269-508): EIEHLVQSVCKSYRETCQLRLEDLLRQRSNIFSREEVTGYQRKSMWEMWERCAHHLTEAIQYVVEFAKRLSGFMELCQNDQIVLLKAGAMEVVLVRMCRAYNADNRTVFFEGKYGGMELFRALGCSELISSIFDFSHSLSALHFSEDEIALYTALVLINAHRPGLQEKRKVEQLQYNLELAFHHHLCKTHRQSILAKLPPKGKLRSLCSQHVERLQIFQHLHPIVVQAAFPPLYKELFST

A word on the IC50: it is the midpoint of a concentration-inhibition curve. Read a high IC50 as weaker potency in that assay. The molecule `CC(C(=O)N1CCC(c2cn(C)c3ncc(NC(=O)c4cccc(C#N)c4)c(C(F)(F)F)c23)CC1)C1CC1` (racemic) [Example 25, Rac-3-cyano-N-(3-(1-(2-cyclopropylpropanoyl)piperidin-4-yl)-1-methyl-4-(trifluoromethyl)-1H-pyrrolo[2,3-b]pyridin-5-yl)benzamide] came in with an IC50 of 5.8 nM. As for `Cc1c(NC(=O)c2cccc(C#N)c2)cnc2c1c([C@H]1C[C@H](C)N(C(=O)C3CCCC3)C[C@H]1C)cn2C` (relative stereo) [Example 97, rel-3-cyano-N-(3-((2S,4S,5S)-1-(cyclopentanecarbonyl)-2,5-dimethylpiperidin-4-yl)-1,4-dimethyl-1H-pyrrolo[2,3-b]pyridin-5-yl)benzamide], the figure is 18.6 nM; as for `Cn1cc(C2CCN(C(=O)[C@H]3CCCS3)CC2)c2c(C(F)(F)F)c(NC(=O)c3cccc(C#N)c3)cnc21` (single isomer, unassigned) [Example 28], 7.1 nM; as for `Cn1cc(C2CCN(C(=O)[C@@H]3CCCS3)CC2)c2c(C(F)(F)F)c(NC(=O)c3cccc(C#N)c3)cnc21` (single isomer, unassigned) [Example 29], 0.9 nM.

In turn, `Cc1c(NC(=O)c2cccc(C#N)c2)cnc2c1c(C1CCN(C(=O)[C@H]3CCC[C@@H]3C)CC1)cn2C` (single isomer, unassigned) [Example 46] had an IC50 of 16.4 nM. Turning to `Cc1c(NC(=O)c2cccc(C#N)c2)cnc2c1c(C1CCN(C(=O)[C@@H]3CCC[C@H]3C)CC1)cn2C` (single isomer, unassigned) [Example 47], the IC50 was determined as 10.1 nM. The figure for `Cc1c(NC(=O)c2cccc(C#N)c2)cnc2c1c(C1CCN(C(=O)[C@@H]3CCC[C@H]3C(C)C)CC1)cn2C` (single isomer, unassigned) [Example 49] is 6.2 nM. `Cn1cc(C2CCN(C(=O)C3CCCC3)CC2)c2c(C(F)(F)F)c(NC(=O)c3ccc(F)c(C#N)c3)cnc21` [Example 3, 3-cyano-N-(3-(1-(cyclopentanecarbonyl)piperidin-4-yl)-1-methyl-4-(trifluoromethyl)-1H-pyrrolo[2,3-b]pyridin-5-yl)-4-fluorobenzamide] displayed an IC50 of 3.2 nM. For `CC(C)C(=O)N1CCC(c2cn(C)c3ncc(NC(=O)c4ccc(F)c(C#N)c4)c(C(F)(F)F)c23)CC1` [Example 9, 3-cyano-4-fluoro-N-(3-(1-isobutyrylpiperidin-4-yl)-1-methyl-4-(trifluoromethyl)-1H-pyrrolo[2,3-b]pyridin-5-yl)benzamide], the IC50 is 5.4 nM.

In the case of `COc1ccc(C(=O)Nc2cnc3c(c(C4CCN(C(=O)C(C)C)CC4)cn3C)c2C(F)(F)F)cc1Cl` [Example 10, 3-chloro-N-(3-(1-isobutyrylpiperidin-4-yl)-1-methyl-4-(trifluoromethyl)-1H-pyrrolo[2,3-b]pyridin-5-yl)-4-methoxybenzamide], the IC50 was determined as 3.5 nM. This IC50 is about 1.5-fold lower than that of the molecule before. `CC(C)C(=O)N1CCC(c2cn(C)c3ncc(NC(=O)c4ccc(Cl)c(C#N)c4)c(C(F)(F)F)c23)CC1` [Example 11, 4-chloro-3-cyano-N-(3-(1-isobutyrylpiperidin-4-yl)-1-methyl-4-(trifluoromethyl)-1H-pyrrolo[2,3-b]pyridin-5-yl)benzamide] came in with an IC50 of 1.5 nM.

Molecule `CC(C)C(=O)N1CCC(c2cn(C)c3ncc(NC(=O)c4ccc(F)c(Cl)c4)c(C(F)(F)F)c23)CC1` [Example 12, 3-chloro-4-fluoro-N-(3-(1-isobutyrylpiperidin-4-yl)-1-methyl-4-(trifluoromethyl)-1H-pyrrolo[2,3-b]pyridin-5-yl)benzamide] returned an IC50 of 11.8 nM. Compared with the last molecule, the IC50 is about 7.9-fold higher.

Take `COc1cc(Cl)cc(C(=O)Nc2cnc3c(c(C4CCN(C(=O)C(C)C)CC4)cn3C)c2C(F)(F)F)c1` [Example 13, 3-chloro-N-(3-(1-isobutyrylpiperidin-4-yl)-1-methyl-4-(trifluoromethyl)-1H-pyrrolo[2,3-b]pyridin-5-yl)-5-methoxybenzamide]: the IC50 amounted to 5 nM. In turn, `Cn1cc(C2CCN(C(=O)[C@H]3C[C@H]4CCCC[C@H]4C3)CC2)c2c(C(F)(F)F)c(NC(=O)c3cccc(C#N)c3)cnc21` [Example 16, 3-cyano-N-(1-methyl-3-(1-((2r,3aR,7aS)-octahydro-1H-indene-2-carbonyl)piperidin-4-yl)-4-(trifluoromethyl)-1H-pyrrolo[2,3-b]pyridin-5-yl)benzamide] had an IC50 of 10.2 nM. As for `Cn1cc(C2CCN(C(=O)CC3CCC3)CC2)c2c(C(F)(F)F)c(NC(=O)c3cccc(C#N)c3)cnc21` [Example 18, 3-cyano-N-(3-(1-(2-cyclobutylacetyl)piperidin-4-yl)-1-methyl-4-(trifluoromethyl)-1H-pyrrolo[2,3-b]pyridin-5-yl)benzamide], the figure is 3.8 nM; as for `Cn1cc(C2CCN(C(=O)CC3CCCCC3)CC2)c2c(C(F)(F)F)c(NC(=O)c3cccc(C#N)c3)cnc21` [Example 20, 3-cyano-N-(3-(1-(2-cyclohexylacetyl)piperidin-4-yl)-1-methyl-4-(trifluoromethyl)-1H-pyrrolo[2,3-b]pyridin-5-yl)benzamide], 5.2 nM; as for `Cn1cc(C2CCN(C(=O)CC3CC3)CC2)c2c(C(F)(F)F)c(NC(=O)c3cccc(C#N)c3)cnc21` [Example 24, 3-cyano-N-(3-(1-(2-cyclopropylacetyl)piperidin-4-yl)-1-methyl-4-(trifluoromethyl)-1H-pyrrolo[2,3-b]pyridin-5-yl)benzamide], 5.8 nM. As for `Cc1c(NC(=O)c2cccc(C#N)c2)cnc2c1c(C1CCN(C(=O)c3cccc4c3CCC4)CC1)cn2C` [Example 34, 3-cyano-N-(3-(1-(2,3-dihydro-1H-indene-4-carbonyl)piperidin-4-yl)-1,4-dimethyl-1H-pyrrolo[2,3-b]pyridin-5-yl)benzamide], the IC50 came to 5.7 nM. The IC50 values of the last two molecules are within 1.5-fold of each other. The figure for `Cc1c(NC(=O)c2cccc(C#N)c2)cnc2c1c(C1CCN(C(=O)[C@H](C)C(C)C)CC1)cn2C` [Example 37, (R)-3-cyano-N-(3-(1-(2,3-dimethylbutanoyl)piperidin-4-yl)-1,4-dimethyl-1H-pyrrolo[2,3-b]pyridin-5-yl)benzamide] is 11.6 nM.

The molecule `Cc1c(NC(=O)c2cc(Cl)ccc2F)cnc2c1c(C1CCN(C(=O)[C@H](C)C(C)(C)C)CC1)cn2C` [Example 41, (R)-5-chloro-N-(1,4-dimethyl-3-(1-(2,3,3-trimethylbutanoyl)piperidin-4-yl)-1H-pyrrolo[2,3-b]pyridin-5-yl)-2-fluorobenzamide] showed an IC50 of 4.5 nM. With `COc1cc(Cl)cc(C(=O)Nc2cnc3c(c(C4CCN(C(=O)[C@H](C)C(C)(C)C)CC4)cn3C)c2C)c1` [Example 42, (R)-3-chloro-N-(1,4-dimethyl-3-(1-(2,3,3-trimethylbutanoyl)piperidin-4-yl)-1H-pyrrolo[2,3-b]pyridin-5-yl)-5-methoxybenzamide], the IC50 was determined as 7.6 nM. In the case of `Cc1c(NC(=O)c2cccc(C#N)c2)cnc2c1c(C1CCN(C(=O)[C@H](C)C34CC(C3)C4)CC1)cn2C` [Example 50, (R)—N-(3-(1-(2-(bicyclo[1.1.1]pentan-1-yl)propanoyl)piperidin-4-yl)-1,4-dimethyl-1H-pyrrolo[2,3-b]pyridin-5-yl)-3-cyanobenzamide], the IC50 turned out to be 7.5 nM. This IC50 and that of the molecule before are within 1.5-fold of each other. `Cc1c(NC(=O)c2cccc(C#N)c2)cnc2c1c(C1CCN(C(=O)[C@H](C)C3CCCC3)CC1)cn2C` [Example 51, (R)-3-cyano-N-(3-(1-(2-cyclopentylpropanoyl)piperidin-4-yl)-1,4-dimethyl-1H-pyrrolo[2,3-b]pyridin-5-yl)benzamide] registered an IC50 of 6.9 nM. The figure for `C[C@@H](C(=O)N1CCC(c2cn(C)c3ncc(NC(=O)c4cc(O)cc(C#N)c4)c(C(F)(F)F)c23)CC1)C(C)(C)C` [Example 54, (R)-3-cyano-5-hydroxy-N-(1-methyl-4-(trifluoromethyl)-3-(1-(2,3,3-trimethylbutanoyl)piperidin-4-yl)-1H-pyrrolo[2,3-b]pyridin-5-yl)benzamide] is 4.7 nM; for `Cn1cc(C2CCN(C(=O)C3CCCC3)CC2)c2c(C(F)(F)F)c(NC(=O)c3cc(O)cc(C#N)c3)cnc21` [Example 55, 3-cyano-N-(3-(1-(cyclopentanecarbonyl)piperidin-4-yl)-1-methyl-4-(trifluoromethyl)-1H-pyrrolo[2,3-b]pyridin-5-yl)-5-hydroxybenzamide] it is 10.6 nM; for `Cc1c(NC(=O)c2cc(O)cc(C#N)c2)cnc2c1c(C1CCN(C(=O)[C@H](C)C(C)(C)C)CC1)cn2C` [Example 56, (R)-3-cyano-N-(1,4-dimethyl-3-(1-(2,3,3-trimethylbutanoyl)piperidin-4-yl)-1H-pyrrolo[2,3-b]pyridin-5-yl)-5-hydroxybenzamide] it is 5.6 nM.

For `Cc1ccc(C(=O)Nc2cnc3c(c([C@@H]4CCN(C(=O)C5CCCC5)C(C)(C)C4)cn3C)c2C)cc1C#N` [Example 59, (R)-3-cyano-N-(3-(1-(cyclopentanecarbonyl)-2,2-dimethylpiperidin-4-yl)-1,4-dimethyl-1H-pyrrolo[2,3-b]pyridin-5-yl)-4-methylbenzamide], the IC50 was 11.8 nM.

Molecule `Cc1c(NC(=O)c2ccc(F)c(C#N)c2)cnc2c1c([C@@H]1CCN(C(=O)C3CCCC3)C(C)(C)C1)cn2C` [Example 61, (R)-3-cyano-N-(3-(1-(cyclopentanecarbonyl)-2,2-dimethylpiperidin-4-yl)-1,4-dimethyl-1H-pyrrolo[2,3-b]pyridin-5-yl)-4-fluorobenzamide] had an IC50 of 15.2 nM. The IC50 values of the last two molecules are within 1.5-fold of each other. Regarding `COc1cc(Cl)cc(C(=O)Nc2cnc3c(c([C@@H]4CCN(C(=O)C(C)C)C(C)(C)C4)cn3C)c2C)c1` [Example 62, (R)-3-chloro-N-(3-(1-isobutyryl-2,2-dimethylpiperidin-4-yl)-1,4-dimethyl-1H-pyrrolo[2,3-b]pyridin-5-yl)-5-methoxybenzamide], the IC50 stood at 9.7 nM. As for `COc1cc(Cl)cc(C(=O)Nc2cnc3c(c([C@@H]4CCN(C(=O)C5CCCC5)C(C)(C)C4)cn3C)c2C)c1` [Example 63, (R)-3-chloro-N-(3-(1-(cyclopentane-carbonyl)-2,2-dimethylpiperidin-4-yl)-1,4-dimethyl-1H-pyrrolo[2,3-b]pyridin-5-yl)-5-methoxybenzamide], the figure is 12.9 nM.

The record behind these values is patent US9670201B2, “Methyl- and trifluoromethyl-substituted pyrrolopyridine modulators of RORC2 and methods of use thereof” (Pfizer Inc., priority 2014, dated 2017).
